# Laboratory results from US10681909B2, “Herbicidal triazoles” (FMC Corporation, priority 2014, dated 2020).
# Columns and labels:
# [1] = test system: wild mustard; assay: Test D preemergence; format: in vivo, Sinapis arvensis; details: for Plant response rating (0 to 100), Mustard, Wild: 16 g ai/ha, 0 is no effect, 100 is complete control; for Plant response rating: Mustard, Wild: scale 0 to 100
# Excerpt: (§1) Seeds of plant species selected from bluegrass (annual bluegrass, Poa annua), blackgrass (Alopecurus myosuroides), canarygrass (Phalaris minor), chickweed (common chickweed, Stellaria media), galium (catchweed bedstraw, Galium aparine), bromegrass, down (downy bromegrass, Bromus tectorum), Russian thistle (Salsola kali), field poppy (Papaver rhoeas), field violet (Viola arvensis), foxtail, green (green foxtail, Setaria viridis), deadnettle (henbit deadnettle, Lamium amplexicaule), ryegrass, Ital. (Italian ryegrass, Lolium multiflorum), kochia (Kochia scoparia), lambsquarters (Chenopodium album), oilseed rape (Brassica napus), pigweed (Amaranthus retroflexus), chamomile (scentless chamomile, Matricaria inodora), speedwell (bird's-eye speedwell, Veronica persica), barley, spring (spring barley, Hordeum vulgare), wheat, spring (spring wheat, Triticum aestivum), buckwheat, wild (wild buckwheat, Polygonum convolvulus), wild mustard (Sinapis arvensis), oat, wild (wild oat, Avena fatua), radish, wild (wild radish, Raphanus raphanistrum), […]), barley, winter (winter barley, Hordeum vulgare), and wheat, winter (winter wheat, Triticum aestivum) were planted into a silt loam soil and treated preemergence with test chemicals formulated in a non-phytotoxic solvent mixture which included a surfactant. At the same time, these species were planted in pots containing Sunshine Redi-Earth® planting medium comprising spaghnum peat moss, vermiculite, starter nutrients and dolomitic limestone and treated with postemergence applications of the test chemicals formulated in the same manner. Plants ranged in height from 2 to 18 cm (1- to 4-leaf stage). Treated plants and controls were maintained in a controlled growth environment for 14 to 21 d after which time all species were compared to controls and visually evaluated. […] A dash (-) response means no test result.
# [2] = test system: deadnettle; assay: Test D postemergence; format: in vivo, Lamium amplexicaule; details: scale 0 to 100
# Excerpt: as §1
# [3] = test system: nutsedge, yellow; assay: Test C preemergence; format: in vivo, Cyperus esculentus; details: for Plant response rating (scale of 0 to 100 where 0 is no effect and 100 is complete control): Nutsedge, Yellow, preemergence; for Nutsedge, Yellow plant response rating (0 to 100): Preemergence, visual rating after 13 to 15 d
# In short: (§2)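 Test chemicals in a non-phytotoxic solvent mixture with surfactant were applied to pots of plants at 2 to 18 cm (1- to 4-leaf stage) for postemergence treatment, grown in a peat-based medium with vermiculite, starter nutrients and dolomitic limestone. Preemergence treatment was to seeds freshly planted in loam soil mixed with sand.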
# [4] = test system: galium; assay: Test D postemergence; format: in vivo, Galium aparine; details: scale 0 to 100
# Excerpt: as §1
# [5] = test system: johnsongrass; assay: Test C preemergence; format: in vivo, Sorghum halepense; details: for Plant response rating (scale of 0 to 100 where 0 is no effect and 100 is complete control): Johnsongrass, preemergence; for Johnsongrass plant response rating (0 to 100): Preemergence, visual rating after 13 to 15 d
# In short: as §2
# [6] = test system: blackgrass; assay: Test D preemergence; format: in vivo, Alopecurus myosuroides; details: for Plant response rating (0 to 100), Blackgrass: 16 g ai/ha, 0 is no effect, 100 is complete control; for Plant response rating: Blackgrass: scale 0 to 100
# Excerpt: as §1
# [7] = test system: ryegrass, Italian; assay: Test C preemergence; format: in vivo, Lolium multiflorum; details: for Ryegrass, Italian plant response rating (0 to 100): Preemergence, visual rating after 13 to 15 d; for Plant response rating (scale of 0 to 100 where 0 is no effect and 100 is complete control): Ryegrass, Italian, preemergence
# In short: as §2
# [8] = test system: barley, winter; assay: Test D preemergence; format: in vivo, Hordeum vulgare; details: for Plant response rating (0 to 100), Barley, Winter: 16 g ai/ha, 0 is no effect, 100 is complete control; for Plant response rating: Barley, Winter: scale 0 to 100
# Excerpt: as §1
# [9] = test system: barley, spring; assay: Test D preemergence; format: in vivo, Hordeum vulgare; details: for Plant response rating (0 to 100), Barley, Spring: 16 g ai/ha, 0 is no effect, 100 is complete control; for Plant response rating: Barley, Spring: scale 0 to 100
# Excerpt: as §1
# [10] = test system: chickweed; assay: Test D postemergence; format: in vivo, Stellaria media; details: scale 0 to 100
# Excerpt: as §1
# [11] = test system: galium; assay: Test C preemergence; format: in vivo, Galium aparine; details: for Plant response rating (scale of 0 to 100 where 0 is no effect and 100 is complete control): Galium, preemergence; for Galium plant response rating (0 to 100): Preemergence, visual rating after 13 to 15 d
# In short: as §2
# [12] = test system: Russian thistle; assay: Test D preemergence; format: in vivo, Salsola kali; details: for Plant response rating (0 to 100), Russian Thistle: 16 g ai/ha, 0 is no effect, 100 is complete control; for Plant response rating: Russian Thistle: scale 0 to 100
# Excerpt: as §1
smiles,measurement,setting,value
FC(F)(F)COc1nc(-c2ccc(Cl)cc2)nn1Cc1ccnc(C(F)(F)F)c1 [Compound 31],"Plant response rating (0 to 100), Mustard, Wild",[1],100
same,"Plant response rating: Mustard, Wild",[1]; 62 g ai/ha,100
same,"Plant response rating: Mustard, Wild",[1]; 125 g ai/ha,100
same,Plant response rating: Deadnettle,[2]; 16 g ai/ha,75
same,Plant response rating: Deadnettle,[2]; 31 g ai/ha,75
same,Plant response rating: Deadnettle,[2]; 62 g ai/ha,80
same,Plant response rating: Deadnettle,[2]; 125 g ai/ha,95
same,Plant response rating (scale of 0 to 100 where 0 is no effect and 100 is complete control),[3]; 125 g ai/ha,5
same,Plant response rating (scale of 0 to 100 where 0 is no effect and 100 is complete control),[3]; 250 g ai/ha,5
same,"Nutsedge, Yellow plant response rating (0 to 100)",[3]; 31 g ai/ha,0
same,"Nutsedge, Yellow plant response rating (0 to 100)",[3]; 62 g ai/ha,0
same,Plant response rating: Galium,[4]; 16 g ai/ha,70
same,Plant response rating: Galium,[4]; 31 g ai/ha,75
same,Plant response rating: Galium,[4]; 62 g ai/ha,80
same,Plant response rating: Galium,[4]; 125 g ai/ha,90
same,Plant response rating (scale of 0 to 100 where 0 is no effect and 100 is complete control),[5]; 125 g ai/ha,85
same,Plant response rating (scale of 0 to 100 where 0 is no effect and 100 is complete control),[5]; 250 g ai/ha,95
same,Johnsongrass plant response rating (0 to 100),[5]; 31 g ai/ha,75
same,Johnsongrass plant response rating (0 to 100),[5]; 62 g ai/ha,80
same,"Plant response rating (0 to 100), Blackgrass",[6],35
same,Plant response rating: Blackgrass,[6]; 31 g ai/ha,40
same,Plant response rating: Blackgrass,[6]; 62 g ai/ha,60
same,Plant response rating: Blackgrass,[6]; 125 g ai/ha,75
same,"Ryegrass, Italian plant response rating (0 to 100)",[7]; 31 g ai/ha,50
same,"Ryegrass, Italian plant response rating (0 to 100)",[7]; 62 g ai/ha,60
same,Plant response rating (scale of 0 to 100 where 0 is no effect and 100 is complete control),[7]; 125 g ai/ha,90
same,Plant response rating (scale of 0 to 100 where 0 is no effect and 100 is complete control),[7]; 250 g ai/ha,90
same,"Plant response rating (0 to 100), Barley, Winter",[8],25
same,"Plant response rating: Barley, Winter",[8]; 31 g ai/ha,35
same,"Plant response rating: Barley, Winter",[8]; 62 g ai/ha,40
same,"Plant response rating: Barley, Winter",[8]; 125 g ai/ha,50
same,"Plant response rating (0 to 100), Barley, Spring",[9],35
same,"Plant response rating: Barley, Spring",[9]; 31 g ai/ha,45
same,"Plant response rating: Barley, Spring",[9]; 62 g ai/ha,45
same,"Plant response rating: Barley, Spring",[9]; 125 g ai/ha,50
same,Plant response rating: Chickweed,[10]; 16 g ai/ha,80
same,Plant response rating: Chickweed,[10]; 31 g ai/ha,90
same,Plant response rating: Chickweed,[10]; 62 g ai/ha,100
same,Plant response rating: Chickweed,[10]; 125 g ai/ha,100
same,Plant response rating (scale of 0 to 100 where 0 is no effect and 100 is complete control),[11]; 125 g ai/ha,30
same,Plant response rating (scale of 0 to 100 where 0 is no effect and 100 is complete control),[11]; 250 g ai/ha,35
same,Galium plant response rating (0 to 100),[11]; 31 g ai/ha,5
same,Galium plant response rating (0 to 100),[11]; 62 g ai/ha,30
same,"Plant response rating (0 to 100), Russian Thistle",[12],70
same,Plant response rating: Russian Thistle,[12]; 62 g ai/ha,85
same,Plant response rating: Russian Thistle,[12]; 125 g ai/ha,90
FC(F)(F)COc1nc(-c2ccccc2)nn1Cc1ccnc(C(F)(F)F)c1 [Compound 24],"Plant response rating (0 to 100), Mustard, Wild",[1],65
same,"Plant response rating: Mustard, Wild",[1]; 62 g ai/ha,100
same,"Plant response rating: Mustard, Wild",[1]; 125 g ai/ha,100
same,Plant response rating: Deadnettle,[2]; 16 g ai/ha,40
same,Plant response rating: Deadnettle,[2]; 31 g ai/ha,60
same,Plant response rating: Deadnettle,[2]; 62 g ai/ha,70
same,Plant response rating: Deadnettle,[2]; 125 g ai/ha,85
same,Plant response rating (scale of 0 to 100 where 0 is no effect and 100 is complete control),[3]; 125 g ai/ha,5
same,Plant response rating (scale of 0 to 100 where 0 is no effect and 100 is complete control),[3]; 250 g ai/ha,15
same,"Nutsedge, Yellow plant response rating (0 to 100)",[3]; 31 g ai/ha,0
same,"Nutsedge, Yellow plant response rating (0 to 100)",[3]; 62 g ai/ha,0
same,Plant response rating: Galium,[4]; 16 g ai/ha,55
same,Plant response rating: Galium,[4]; 31 g ai/ha,70
same,Plant response rating: Galium,[4]; 62 g ai/ha,65
same,Plant response rating: Galium,[4]; 125 g ai/ha,75
same,Plant response rating (scale of 0 to 100 where 0 is no effect and 100 is complete control),[5]; 125 g ai/ha,55
same,Plant response rating (scale of 0 to 100 where 0 is no effect and 100 is complete control),[5]; 250 g ai/ha,85
same,Johnsongrass plant response rating (0 to 100),[5]; 31 g ai/ha,10
same,Johnsongrass plant response rating (0 to 100),[5]; 62 g ai/ha,40
same,"Plant response rating (0 to 100), Blackgrass",[6],20
same,Plant response rating: Blackgrass,[6]; 31 g ai/ha,45
same,Plant response rating: Blackgrass,[6]; 62 g ai/ha,50
same,Plant response rating: Blackgrass,[6]; 125 g ai/ha,65
same,"Ryegrass, Italian plant response rating (0 to 100)",[7]; 31 g ai/ha,5
same,"Ryegrass, Italian plant response rating (0 to 100)",[7]; 62 g ai/ha,15
same,Plant response rating (scale of 0 to 100 where 0 is no effect and 100 is complete control),[7]; 125 g ai/ha,85
same,Plant response rating (scale of 0 to 100 where 0 is no effect and 100 is complete control),[7]; 250 g ai/ha,90
same,"Plant response rating (0 to 100), Barley, Winter",[8],15
same,"Plant response rating: Barley, Winter",[8]; 31 g ai/ha,15
same,"Plant response rating: Barley, Winter",[8]; 62 g ai/ha,25
same,"Plant response rating: Barley, Winter",[8]; 125 g ai/ha,25
same,"Plant response rating (0 to 100), Barley, Spring",[9],20
same,"Plant response rating: Barley, Spring",[9]; 31 g ai/ha,25
same,"Plant response rating: Barley, Spring",[9]; 62 g ai/ha,30
same,"Plant response rating: Barley, Spring",[9]; 125 g ai/ha,35
same,Plant response rating: Chickweed,[10]; 16 g ai/ha,55
same,Plant response rating: Chickweed,[10]; 31 g ai/ha,60
same,Plant response rating: Chickweed,[10]; 62 g ai/ha,70
same,Plant response rating: Chickweed,[10]; 125 g ai/ha,90
same,Plant response rating (scale of 0 to 100 where 0 is no effect and 100 is complete control),[11]; 125 g ai/ha,50
same,Plant response rating (scale of 0 to 100 where 0 is no effect and 100 is complete control),[11]; 250 g ai/ha,90
same,Galium plant response rating (0 to 100),[11]; 31 g ai/ha,5
same,Galium plant response rating (0 to 100),[11]; 62 g ai/ha,30
same,"Plant response rating (0 to 100), Russian Thistle",[12],65
same,Plant response rating: Russian Thistle,[12]; 62 g ai/ha,85
same,Plant response rating: Russian Thistle,[12]; 125 g ai/ha,85
